Measured values: patent US6020176A, “Kaurene synthase” (The Institute of Physical and Chemical Research, priority 1995, dated 2000)

Test system: ent-kaurene synthase B (KSB)
Experiment: Properties of KSB with the phenyl-purified enzyme preparation (pH, Km, cations)
Type: biochemical, Cucurbita maxima L.
Details: for effect of divalent cation on KSB activity: 0.1-50 mM as chlorides, instead of 5 mM Mg2+; for effect of divalent cation on KSB activity / optimal concentration of cation for KSB activity: FIG. 4; for optimal concentration of cation for KSB activity: cation as chloride instead of 5 mM Mg2+
Procedure: The mixture was incubated at 30° C. for 30 min, and the enzyme reaction was terminated by the addition of acetone (200 μL) and water (100 μL). The mixture was extracted with n-hexane (400 μL), and 300 μL alibuots of the extract were concentrated in vacuo and applied to a silica gel plate. After developing with n-hexane, the radioactivity of the silica gel of the ent-kaurene region (Rf 0.6-1.0) was determined. One unit of kaurene synthase activity was defined as the production of 1 pmol of ent-kaurene per minute.
The amount of [1-^3 H]CPP was 2.2 kBq and the incubation period was 15 min. The other conditions were the same as those for the enzyme assay. To determine the optimal pH, KPi buffer (50 mM) adjusted to a particular pH (pH 4.5 to 9.0) was used. […] The production of ent-kaurene was calculated and the Km value was determined from a Lineweaver-Burk plot.

SMILES | effect of divalent cation on KSB activity | effect on KSB activity in combination with 5 mM Mg2+ (added together with 5 mM Mg2+) | optimal concentration of cation for KSB activity | further results
O=C(O)CN(CCN(CC(=O)O)CC(=O)O)CC(=O)O [EDTA] | – | – | – | effect of EDTA on KSB activity (EDTA 1-100 mM): did not change KSB activity
[Cl][Fe][Cl] [Fe^2+] | weakly promoted KSB activity | – | – | –
C=C1CC[C@@H]2C(C)(C)CCC[C@@]2(C)[C@@H]1CC/C(C)=C/COP(=O)(O)OP(=O)(O)O [[15-^3 H]CPP, copalyl pyrophosphate] | – | – | – | Km (phenyl-purified enzyme preparation, CPP 7 to 480 nM, Lineweaver-Burk plot): 0.35 µM
[Ca+2].[Cl-].[Cl-] [Ca^2+] | showed no effects | inhibited KSB activity promoted by Mg^2+ | – | –
[Cl-].[Cl-].[Co+2] [Co^2+] | promoted KSB activity | – | around 10 mM | –
[Cl][Cu][Cl] [Cu^2+] | showed no effects | inhibited KSB activity promoted by Mg^2+ | – | concentration completely inhibiting the conversion promoted by 5 mM Mg2+ (added together with 5 mM Mg2+): above 0.5 mM
[Cl][Ni][Cl] [Ni^2+] | weakly promoted KSB activity | – | – | –
[Cl-].[Cl-].[Mg+2] [Mg^2+] | promoted KSB activity | – | around 10 mM | –
[Cl][Mn][Cl] [Mn^2+] | promoted KSB activity | – | around 10 mM | –
[Ba+2].[Cl-].[Cl-] [Ba^2+] | showed no effects | inhibited KSB activity promoted by Mg^2+ | – | –
